Results as given in patent US20260125357A1, “LACTATE ENHANCING COMPOUNDS AND USES THEREOF” (GLIAPHARM SA, priority 2022, published 2026).

What was measured:
[1] = tested on: human iPSC-derived astrocytes; assay: Uptake of 2-DG in human iPSC-derived astrocytes; type: cell-based; conditions: treated for 1.5 hours
Protocol: Astrocytes grown on 12-well plates and transfected with either scramble siRNA or GLUT1 siRNA were used. 1 day after having replaced transfection medium (DIV13), 2DG uptake was measured after treatment for 30 min with Vehicle (0.1% DMSO) or with the compound of the invention (1) to (5) (concentrations of 0.1 to 10 μM). During treatment, 1 mM 2DG was added to the medium for assessment of 2DG uptake. At the end of the stimulation, medium was removed and replaced with 150 μl NaOH 0.1M, and stored at −20° C. After thawing, cells were collected using cell scraper and heated for 40 min at 85° C. Then, 150 ul HCl 0.1M and TAE buffer 200 mM was added to each condition. 20 μl were added to a transparent 96-well plate and 2DG was quantified by addition of a reaction solution containing 50 mM TAE, 50 mM KCl, 0.02% BSA, 0.1 mM NADP, 0.2 U/ml diaphorase, 2 mM resazurin and 20 U/ml glucose-6-phosphate dehydrogenase. Concentration of 2DG in samples were calculated by comparison with standard curve of deoxy-glucose-6-phophate ranging from 0 to 1 nmoles.
Human iPSC-derived astrocytes were purchased from NCardia (NCyte Astrocytes) and were plated at a density of ˜10′000 cells/cm^2 in 96-well or 12-well plates, according to the manufacturer's instructions and using the recommended media. […] Uptake of 2-DG and release of lactate were quantified as described previously.

C57Bl/6J wild-type mice = assay: 18F-FDG PET glucose uptake in the brain; type: in vivo, mouse; conditions: gavage, 30 mg/kg, vs Vehicle
Protocol: All experiments were carried out in strict accordance with the Swiss Federal Guidelines for Animal Experimentation and were approved by the Cantonal Veterinary Office for Animal Experimentation (Canton of Geneva, Switzerland). Adult male C57Bl/6J wild-type mice weighting 18-28 g (8 to 12 weeks of age) were used (Charles River Laboratories). Animals were housed in groups of 3-5 in polypropylene cages (30×40×15 cm) with wire mesh top in a temperature (22±2° C.) and humidity (55±15%) controlled environment on a 12-hour light cycle (07.00-19.00 h lights on), except after surgeries when animal were housed individually. The samples (Vehicle or compounds of the invention) were administered per os (gavage) in a solution made of water supplemented with 0.4% hydroxypropyl methylcellulose (HPMC) Methocel 4 KM (w/v) and 0.25% Tween-20 (v/v), as previously described (Thackaberry et al., 2010, Toxicol Sci., 117(2):485-92). Concentrations of the compounds tested ranged from 3 to 30 mg/kg.
^18F-FDG PET Glucose uptake in the brain was measured in vivo using 18F-fluorodeoxyglucose (FDG) with positron emission tomography (PET) Scan. Mice were fasted for 12 hours before the scans PET/CT measurements. Compounds of the invention were administered by gavage, followed by an intraperitoneal injection of 5 MBq of ^18F-FDG in 300 μL of saline. […]

[2] = tested on: old C57Bl/6J wild-type mice; assay: Morris Water Maze memory in old (16-month-old) wild-type mice; type: in vivo, mouse; conditions: 1 day after training
Protocol: Adult male C57Bl/6J wild-type from 3 month of age (young adults) to 16 month of age (old adults) are used (Charles River). Animals are housed in groups of 3-5 in polypropylene cages (30×40×15 cm) with wire mesh top in a temperature (22±2° C.) and humidity (55±15%) controlled environment on a 12-hour light cycle (07.00-19.00 h lights on). The samples (Vehicle or compounds of the invention) are administered per os (gavage) in a solution made of water supplemented with 0.4% hydroxypropyl methylcellulose (HPMC) Methocel 4 KM (w/v) and 0.25% Tween-20 (v/v), as previously described (Thackaberry et al., 2010, Toxicol Sci., 117(2):485-92). Memory of young adults treated with Vehicle or Old adults treated with Vehicle or compound (1) at 10 mg/kg or 30 mg/kg is tested in the Morris Water Maze, as described below. Treatment is administered at each day of training, 30 minutes before the first training session. No treatment is administered during memory retention test.
Morris Water Maze (MWM), a well-established spatial and contextual memory test, will be used. […] A number of parameters including the latency to find the platform, time spent around the platform, path efficiency, % time spent in each quadrant is recorded, using automated tracking software (Ethovision). The type of exploration (direct, random, scan of the area) is also recorded. […]

Structure (SMILES): COc1cc2ccnc(Nc3ccc(S(C)(=O)=O)cc3)c2cc1OC [Compound 2, 6,7-dimethoxy-N-(4-methylsulfonylphenyl)isoquinolin-1-amine]
- uptake of 2-DG [1]: increased uptake of 2-DG
- glucose uptake in the brain (18F-FDG in the whole brain) (C57Bl/6J wild-type mice): increases glucose uptake in the brain
- memory in the Morris Water Maze ([2]; 10 mg/kg per os): significant increase of memory
- memory in the Morris Water Maze ([2]; 30 mg/kg per os): significant increase of memory
